Laboratory results reported in PubChem BioAssay (NCI).
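Interpolation was linear, between the two tested concentrations surrounding the appropriate level; five concentrations were tested over 48 hours in 96-well plates. GI50 is the concentration that inhibits growth by half. TGI denotes the concentration required for complete inhibition of growth.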

How the values were obtained:
Experiment in all cases: DTP human tumour cell line panel, 48 h
[1] = system: HL-60(TB) leukemia
[2] = system: CCRF-CEM leukemia
[3] = system: NCI-H522 lung
[4] = system: SK-MEL-28 melanoma
[5] = system: SK-MEL-5 melanoma
[6] = system: HCT-15 colon
[7] = system: HT29 colon
[8] = system: CAKI-1 renal
[9] = system: SF-295 CNS
[10] = system: M14 melanoma

COc1cc(Cn2c(-c3ccccc3)cc3c2-c2oncc2CC3)cc(OC)c1
GI50 [1]: 0.264 µM | TGI [1]: 2.73 µM | GI50 [2]: 0.337 µM | TGI [2]: > 100 µM | GI50 [3]: 0.0891 µM | TGI [3]: 1.98 µM | GI50 [4]: 0.416 µM | TGI [4]: > 100 µM | GI50 [5]: 0.372 µM | TGI [5]: 2.02 µM | GI50 [6]: 0.361 µM | TGI [6]: > 100 µM | GI50 [7]: 0.315 µM | TGI [7]: 25.9 µM | GI50 [8]: 0.354 µM | TGI [8]: > 100 µM | GI50 [9]: 0.209 µM | TGI [9]: 4.03 µM | GI50 [10]: 0.299 µM

CC1=CC(=O)NP(=O)(C23CC4CC(CC(C4)C2)C3)N1 (centres undefined)
TGI [1]: > 100 µM | TGI [2]: > 100 µM | TGI [3]: > 100 µM | TGI [4]: > 100 µM | TGI [5]: > 100 µM | TGI [6]: > 100 µM | TGI [7]: > 100 µM | TGI [8]: > 100 µM | TGI [9]: > 100 µM | TGI [10]: > 100 µM

CNC(c1ccncc1)C(NC)c1ccncc1 (centres undefined)
TGI [1]: > 100 µM | TGI [2]: > 100 µM | TGI [3]: > 100 µM | TGI [4]: > 100 µM | TGI [5]: > 100 µM | TGI [6]: > 100 µM | TGI [7]: > 100 µM | TGI [8]: > 100 µM | TGI [9]: > 100 µM | TGI [10]: > 100 µM

COc1cc(C(C#N)NNc2nc(C)cc(=O)[nH]2)cc(OC)c1OC (centres undefined)
TGI [1]: > 100 µM | TGI [2]: > 100 µM | TGI [3]: > 100 µM | TGI [4]: > 100 µM | TGI [5]: > 100 µM | TGI [6]: > 100 µM | TGI [7]: > 100 µM | TGI [8]: > 100 µM | TGI [9]: > 100 µM | TGI [10]: > 100 µM

COC(=O)C(C(=O)C(N)=O)c1csc(-n2nc(-c3ccccc3)cc2-c2ccccc2)n1 (centres undefined)
TGI [1]: > 31.6 µM | TGI [2]: > 31.6 µM | TGI [3]: > 31.6 µM | TGI [4]: > 31.6 µM | TGI [5]: > 31.6 µM | TGI [6]: > 31.6 µM | TGI [7]: > 100 µM | TGI [8]: 15.5 µM | TGI [9]: > 100 µM | TGI [10]: > 31.6 µM

O=C1CCC(=O)c2sccc2N1
TGI [1]: > 100 µM | TGI [2]: > 100 µM | TGI [3]: > 100 µM | TGI [4]: > 100 µM | TGI [5]: > 100 µM | TGI [6]: > 100 µM | TGI [7]: > 100 µM | TGI [8]: > 100 µM | TGI [9]: > 100 µM | TGI [10]: > 100 µM

O=C(/C=C/c1ccco1)c1ccc(Nc2nc(Nc3ccc(F)cc3)nc(Nc3ccc(F)cc3)n2)cc1
GI50 [1]: 17.5 µM | TGI [1]: 52.9 µM | GI50 [2]: 19 µM | TGI [2]: > 100 µM | GI50 [3]: 21.4 µM | TGI [3]: 74.6 µM | GI50 [4]: 18.3 µM | TGI [4]: 44.3 µM | GI50 [5]: 27 µM | TGI [5]: > 100 µM | GI50 [6]: 22.5 µM | TGI [6]: > 100 µM | GI50 [7]: 18.1 µM | TGI [7]: > 100 µM | GI50 [8]: 26.7 µM | TGI [8]: 60.5 µM | GI50 [9]: 23.8 µM | TGI [9]: 48.9 µM | GI50 [10]: 12.8 µM | TGI [10]: 30.5 µM

Cc1ccc(S(=O)(=O)NC(CO)C(=O)O)cc1 (centres undefined)
TGI [1]: > 100 µM | TGI [2]: > 100 µM | TGI [3]: > 100 µM | TGI [4]: > 100 µM | TGI [5]: > 100 µM | TGI [6]: > 100 µM | TGI [7]: > 100 µM | TGI [8]: > 100 µM | TGI [9]: > 100 µM | TGI [10]: > 100 µM

Cc1c(Cl)c(C)c(Cc2c(C)c(Cl)c(C)c(Cl)c2O)c(O)c1Cl
GI50 [1]: 2.92 µM | TGI [1]: 11.2 µM | GI50 [2]: 2.57 µM | TGI [2]: 12.6 µM | GI50 [3]: 1.84 µM | TGI [3]: 11.2 µM | GI50 [4]: 3.14 µM | TGI [4]: 14 µM | GI50 [5]: 1.28 µM | TGI [5]: 3.33 µM | GI50 [6]: 2.32 µM | TGI [6]: 10.7 µM | GI50 [7]: 3.84 µM | TGI [7]: 12.7 µM | GI50 [8]: 2.3 µM | TGI [8]: 9.77 µM | GI50 [9]: 2.05 µM | TGI [9]: 5.08 µM | GI50 [10]: 3.53 µM | TGI [10]: 14.4 µM
